Values joined by “and” are separate entries in the source; they are usually repeats but may differ in a detail not shown here. Equal entries are not always repeated. Toxic doses and inconclusive results are not listed.

The subject of this test is L1210 leukemia ip in BDF1 mice, survival T/C. As to the kind of experiment: NCI In Vivo Anticancer Drug Screen. Data for tumor model L1210 Leukemia (intraperitoneal) in B6D2F1 (BDF1) mice. The conditions noted are these: endpoint: mean survival time, higher = longer survival. A digest of the protocol:
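Tumor was transplanted into mice, which were then dosed with test compound or vehicle alone. Survival was recorded for each group, and the treated figure was expressed relative to the control figure.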

[1] abbreviates: dose: 100.0 mg/kg/injection, schedule: Q01DX001 (ip), vehicle: saline.
Where [2] appears, read: dose: 200.0 mg/kg/injection, schedule: Q01DX001 (ip), vehicle: saline.
The mark [3] stands for this setting: dose: 100.0 mg/kg/injection, schedule: Q01DX001 (ip), vehicle: carboxymethylcellulose (CMC).
Setting [4] is: dose: 100.0 mg/kg/injection, schedule: Q04DX003 (ip), vehicle: Klucel (hydroxypropylcellulose) (HPC).
The mark [5] stands for this setting: dose: 200.0 mg/kg/injection, schedule: Q04DX003 (ip), vehicle: Klucel (hydroxypropylcellulose) (HPC).
Setting [6] is: dose: 400.0 mg/kg/injection, schedule: Q04DX003 (ip), vehicle: Klucel (hydroxypropylcellulose) (HPC).
Setting [7] is: dose: 100.0 mg/kg/injection, schedule: Q01DX001 (ip), vehicle: Klucel (hydroxypropylcellulose) (HPC).
[8] abbreviates: dose: 100.0 mg/kg/injection, schedule: Q01DX009 (ip), vehicle: Klucel (hydroxypropylcellulose) (HPC).
The mark [9] stands for this setting: dose: 200.0 mg/kg/injection, schedule: Q01DX001 (ip), vehicle: Klucel (hydroxypropylcellulose) (HPC).
[10] abbreviates: dose: 200.0 mg/kg/injection, schedule: Q01DX009 (ip), vehicle: Klucel (hydroxypropylcellulose) (HPC).
Where [11] appears, read: dose: 400.0 mg/kg/injection, schedule: Q01DX009 (ip), vehicle: Klucel (hydroxypropylcellulose) (HPC).
Where [12] appears, read: dose: 400.0 mg/kg/injection, schedule: Q01DX001 (ip), vehicle: saline.

Take `Cc1ccc(Cl)cc1NC(=O)N1C(C)CCCC1C` (stereo unspecified): the T/C runs as follows: (dose: 25.0 mg/kg/injection, schedule: Q01DX009 (ip), vehicle: saline with Tween-80) 94 % of control and 110 % of control; (dose: 50.0 mg/kg/injection, schedule: Q01DX009 (ip), vehicle: saline with Tween-80) 106 % of control and 108 % of control; (dose: 50.0 mg/kg/injection, schedule: Q04DX003 (ip), vehicle: saline with Tween-80) 100 % of control; (dose: 100.0 mg/kg/injection, schedule: Q01DX001 (ip), vehicle: saline with Tween-80) 101 % of control and 118 % of control; under setting [1], 102 % of control; (dose: 100.0 mg/kg/injection, schedule: Q04DX002 (ip), vehicle: saline with Tween-80) 95 % of control and 89 % of control. Moreover, the T/C reads like this: (dose: 100.0 mg/kg/injection, schedule: Q04DX003 (ip), vehicle: saline with Tween-80) 104 % of control; (dose: 200.0 mg/kg/injection, schedule: Q01DX001 (ip), vehicle: saline with Tween-80) 101 % of control and 110 % of control; under setting [2], 108 % of control; (dose: 200.0 mg/kg/injection, schedule: Q04DX002 (ip), vehicle: saline with Tween-80) 93 % of control and 106 % of control; (dose: 200.0 mg/kg/injection, schedule: Q04DX003 (ip), vehicle: saline with Tween-80) 109 % of control; (dose: 400.0 mg/kg/injection, schedule: Q01DX001 (ip), vehicle: saline with Tween-80) 101 % of control. For the same compound, under “dose: 400.0 mg/kg/injection, schedule: Q04DX002 (ip), vehicle: saline with Tween-80”, the T/C was 102 % of control.
For `CC1(C)C2CCC(O)(C(=O)O)C1C2` (stereo unspecified), the T/C by setting is: (dose: 50.0 mg/kg/injection, schedule: Q01DX001 (ip), vehicle: carboxymethylcellulose (CMC)) 106 % of control; under setting [3], 91 % of control; (dose: 200.0 mg/kg/injection, schedule: Q01DX001 (ip), vehicle: carboxymethylcellulose (CMC)) 91 % of control; (dose: 400.0 mg/kg/injection, schedule: Q01DX001 (ip), vehicle: carboxymethylcellulose (CMC)) 100 % of control.
Consider `CCN=C(NCC)Nc1ccc(NC(=O)c2ccc(C(=O)Nc3ccc(NC(=NCC)NCC)cc3)cc2)cc1`, for which the T/C by setting is: (dose: 1.87 mg/kg/injection, schedule: Q01DX Z (ip), vehicle: water) 93 % of control; (dose: 3.75 mg/kg/injection, schedule: Q01DX Z (ip), vehicle: water) 97 % of control; (dose: 7.5 mg/kg/injection, schedule: Q01DX Z (ip), vehicle: water) 109 % of control; (dose: 8.0 mg/kg/injection, schedule: Q01DX009 (ip), vehicle: carboxymethylcellulose (CMC)) 156 % of control; (dose: 16.0 mg/kg/injection, schedule: Q01DX009 (ip), vehicle: carboxymethylcellulose (CMC)) 167 % of control; (dose: 20.0 mg/kg/injection, schedule: Q01DX001 (ip), vehicle: carboxymethylcellulose (CMC)) 103 % of control. Further, the T/C runs as follows: (dose: 21.0 mg/kg/injection, schedule: Q01DX001 (ip), vehicle: other) 103 % of control; (dose: 31.0 mg/kg/injection, schedule: Q01DX001 (ip), vehicle: other) 105 % of control; (dose: 33.0 mg/kg/injection, schedule: Q01DX009 (ip), vehicle: other) 190 % of control; (dose: 40.0 mg/kg/injection, schedule: Q01DX001 (ip), vehicle: carboxymethylcellulose (CMC)) 104 % of control; (dose: 47.0 mg/kg/injection, schedule: Q01DX001 (ip), vehicle: other) 116 % of control; (dose: 50.0 mg/kg/injection, schedule: Q01DX009 (ip), vehicle: other) 181 % of control. Also, the T/C runs as follows: (dose: 70.0 mg/kg/injection, schedule: Q01DX001 (ip), vehicle: other) 114 % of control; (dose: 75.0 mg/kg/injection, schedule: Q01DX001 (ip), vehicle: other) 118 % of control; (dose: 75.0 mg/kg/injection, schedule: Q01DX009 (ip), vehicle: other) 107 % of control; (dose: 80.0 mg/kg/injection, schedule: Q01DX001 (ip), vehicle: carboxymethylcellulose (CMC)) 119 % of control; under setting [3], 121 % of control; (dose: 106.0 mg/kg/injection, schedule: Q01DX001 (ip), vehicle: other) 114 % of control. Further, the T/C runs as follows: (dose: 150.0 mg/kg/injection, schedule: Q01DX001 (ip), vehicle: other) 153 % of control; (dose: 160.0 mg/kg/injection, schedule: Q01DX001 (ip), vehicle: carboxymethylcellulose (CMC)) 167 % of control and 196 % of control; (dose: 160.0 mg/kg/injection, schedule: Q01DX001 (ip), vehicle: other) 112 % of control; (dose: 240.0 mg/kg/injection, schedule: Q01DX001 (ip), vehicle: other) 227 % of control; (dose: 300.0 mg/kg/injection, schedule: Q01DX001 (ip), vehicle: other) 212 % of control.
For the compound `Cc1cc(NCCCN(C)C)c2c(c1N)C(=O)c1ccccc1C2=O`, the T/C is, setting by setting: under setting [4], 88 % of control; under setting [5], 92 % of control; under setting [6], 92 % of control.
As for `O=C(Cn1cnc2c(=S)nc[nH]c21)Oc1ccc([N+](=O)[O-])cc1`, the T/C (dose: 100.0 mg/kg/injection, schedule: Q01DX009 (ip), vehicle: saline with Tween-80) was 98 % of control; the T/C under setting [4] is 96 % of control; the T/C under setting [5] is 105 % of control; the T/C under setting [6] was 94 % of control.
`CC(O)c1cccc(NC(=O)Nc2cccc(C(F)(F)F)c2)c1` (stereo unspecified): the T/C by setting is: under setting [7], 104 % of control; under setting [8], 100 % of control and 109 % of control; (dose: 100.0 mg/kg/injection, schedule: Q04DX002 (ip), vehicle: Klucel (hydroxypropylcellulose) (HPC)) 110 % of control and 111 % of control; under setting [4], 99 % of control; under setting [9], 98 % of control; under setting [10], 107 % of control and 116 % of control. The T/C is, setting by setting: (dose: 200.0 mg/kg/injection, schedule: Q04DX002 (ip), vehicle: Klucel (hydroxypropylcellulose) (HPC)) 108 % of control; under setting [5], 95 % of control; (dose: 400.0 mg/kg/injection, schedule: Q01DX001 (ip), vehicle: Klucel (hydroxypropylcellulose) (HPC)) 98 % of control; under setting [11], 101 % of control and 89 % of control; (dose: 400.0 mg/kg/injection, schedule: Q04DX002 (ip), vehicle: Klucel (hydroxypropylcellulose) (HPC)) 112 % of control and 115 % of control; under setting [6], 103 % of control.
Turning to `Cc1ccc(-c2ccc(C)s2)s1`, the T/C was 95 % of control (dose: 50.0 mg/kg/injection, schedule: Q01DX009 (ip), vehicle: acetone); 90 % of control (dose: 100.0 mg/kg/injection, schedule: Q01DX009 (ip), vehicle: acetone); 96 % of control (dose: 100.0 mg/kg/injection, schedule: Q04DX003 (ip), vehicle: saline); 90 % of control (dose: 200.0 mg/kg/injection, schedule: Q01DX009 (ip), vehicle: acetone); 93 % of control (dose: 200.0 mg/kg/injection, schedule: Q04DX003 (ip), vehicle: saline); 100 % of control (dose: 400.0 mg/kg/injection, schedule: Q04DX003 (ip), vehicle: saline).
Consider `O=C1c2cc(Br)ccc2NC1(c1c[nH]c2ccc(Br)cc12)c1c[nH]c2ccc(Br)cc12`, for which the T/C was 100 % of control (dose: 50.0 mg/kg/injection, schedule: Q01DX001 (ip), vehicle: saline); 96 % of control under setting [1]; 93 % of control under setting [2]; 93 % of control under setting [12].
Consider `Cc1cc(C)c(S(=O)(=O)Nc2cc(C)ccc2C)c(C)c1`, for which the T/C was 100 % of control under setting [8], 96 % of control under setting [10] and 100 % of control under setting [11].
As to `O=C(CCl)NCc1ccc([N+](=O)[O-])cc1`, the T/C is 100 % of control (dose: 50.0 mg/kg/injection, schedule: Q01DX001 (ip), vehicle: Klucel (hydroxypropylcellulose) (HPC)); 103 % of control under setting [7]; 101 % of control under setting [9].
With `CCOC(=O)C(Br)(C(=O)OCC)C(C)C`, the T/C is, setting by setting: (dose: 100.0 mg/kg/injection, schedule: Q01DX009 (ip), vehicle: saline) 101 % of control; (dose: 200.0 mg/kg/injection, schedule: Q01DX009 (ip), vehicle: saline) 95 % of control; (dose: 400.0 mg/kg/injection, schedule: Q01DX009 (ip), vehicle: saline) 100 % of control.
With `Clc1cc(-c2ccccc2Br)nc2ccccc12`, the T/C was 90 % of control under setting [1], 90 % of control under setting [2] and 88 % of control under setting [12].

The record behind these values is PubChem BioAssay AID248 (DTP/NCI, 2004).
